Reference: patent US5789447A, “Nitric oxide releasing compounds as protective agents in ischemia reperfusion injury” (priority 1995, dated 1998)

B1: catalase: catalase (protein, UniProt P04040 2-527, looked up)
Catalase: ADSRDPASDQMQHWKEQRAAQKADVLTTGAGNPVGDKLNVITVGPRGPLLVQDVVFTDEMAHFDRERIPERVVHAKGAGAFGYFEVTHDITKYSKAKVFEHIGKKTPIAVRFSTVAGESGSADTVRDPRGFAVKFYTEDGNWDLVGNNTPIFFIRDPILFPSFIHSQKRNPQTHLKDPDMVWDFWSLRPESLHQVSFLFSDRGIPDGHRHMNGYGSHTFKLVNANGEAVYCKFHYKTDQGIKNLSVEDAARLSQEDPDYGIRDLFNAIATGKYPSWTFYIQVMTFNQAETFPFNPFDLTKVWPHKDYPLIPVGKLVLNRNPVNYFAEVEQIAFDPSNMPPGIEASPDKMLQGRLFAYPDTHRHRLGPNYLHIPVNCPYRARVANYQRDGPMCMQDNQGGAPNYYPNSFGAPEQQPSALEHSIQYSGEVRRFNTANDDNVTQVRAFYVNVLNEEQRKRLCENIAGHLKDAQIFIQKKAVKNFTEVHPDYGSHIQALLDKYNAEKPKNAIHTFVQSGSHLAAREKANL

What was measured:
leukocytes = assay: Leukocyte adherence and emigration after ischemia reperfusion (mesenteric venules); format: in vivo, rat; settings: 20 min ischemia, 100 μM; for change in leukocyte adherence: FIG. 4A; for effect on emigrated leukocytes: 30 min reperfusion, in words
Procedure: (§1) Male Sprague-Dawley rats weighing 200-250 g apiece were maintained on a purified laboratory diet and fasted for 24 hours prior to each experiment. The animals were initially anesthetized with pentobarbital (65 mg/kg body weight) and then a tracheotomy was performed to facilitate breathing during subsequent experimentation. The right carotid artery was cannulated and system arterial pressure was measured with a Statham P23A pressure transducer (Oxnard, Calif.) connected to the carotid artery cannula. Systemic blood pressure and heart rate were continuously recorder with a Grass physiologic recorded (Grass Instruments).
(§2) Rats were placed in a supine position on an adjustable plexiglass microscope stage and the mesentery was prepared for microscopic observation as described previously (Asako et al., Gastroenterology, 103, 146-152 (1992); Kurose et al., Circ. Res., in press (1993)). Briefly, the mesentery was draped over a non-fluorescent coverslip that allowed for observation of a 2 cm^2 segment of tissue. The exposed bowel wall was covered with Saran Wrap (Dow Chemical Co.) and the mesentery was superfused with bicarbonate-buffered saline (pH 7.4, 37° C.) that was bubbled with a mixture of 5% CO2 and […].
(§3) An inverted microscope (TMD-25, Diaphoto, Nikon, Tokyo, Japan) with a 40x objective lens (Fluor, Nikon) was used to observe the mesenteric microcirculation. The mesentery was transilluminated with a 12 V-100 W direct current-stabilized light source. A video camera (VK-C150, Hitachi, Ibaragi, Japan) mounted on the microscope projected the image onto a color monitor (PVM-2030, Sony, Tokyo, Japan) and the images were recorded using a videocassette record (NV8950, Panasonic, Tokyo, Japan). A video time-date generator (WJ810, Panasonic) projected the time, date and stopwatch function onto the monitor.
(§4) Single unbranched venules with diameters ranging between 25 and 35 μm and length greater than 150 μm were selected for study. Venular diameter (DV) was measured either on- or off-line using a video caliper (Microcirculation Research Institute, Texas A&M University, College Station, Tex.). Red blood cell centerline velocity (VRBC) was measured in venules using an optical Dopper velocimeter (Microcirculation Research Institute, Texas A&M University, College Station, Tex.). The velocimeter was calibrated against a rotating glass disk coated with red blood cells. Venular blood flow was calculated from the product of mean red blood cell velocity (Vmean =centerline velocity/1.6; Davis, Microvasc. Res., 34, 223-230 (1987)) and microvascular cross-sectional area, assuming cylindrical geometry. Wall shear rate (γ) was calculated based on the Newtonian definition γ=8(Vmean /D).
The number of adherent leukocytes was determined off-line during playback of videotape images. A leukocyte was considered to be adherent to venular endothelium if it remained stationary for a period equal to or greater than 30 seconds (Granger et al., Am. J. Physiol., 257, G683-G688 (1989)). Adherent cells were expressed as the number per 100 μm length of venule. The number of emigrated leukocytes was also determined off-line during playback of videotape images. Any interstitial leukocytes present in the mesentery at the onset of the experiment were subtracted from the total number of leukocytes that accumulated during the course of the experiment. Leukocyte emigration was expressed as the number per field of view surrounding the venule. Platelet-leukocyte aggregates, which were visible within postcapillary venules, were quantitated and expressed as the number of aggregates crossing a fixed point within the venule over a 5 min period. Mast cells in the microvascular beds of the rat mesenteries were visualized by using 0.1% toluidine blue. The number of normal and degranulated mast cells was determined and the percentage of degranulated mast cells was calculated.

mast cells = assay: Degranulation of microvascular mast cells after ischemia reperfusion; format: in vivo, rat; settings: 20 min ischemia, 30 min reperfusion; 100 μM; FIG. 7
Procedure: as §1, §2
(§5) An inverted microscope (TMD-25, Diaphoto, Nikon, Tokyo, Japan) with a 40x objective lens (Fluor, Nikon) was used to observe the mesenteric microcirculation. […] A video camera (VK-C150, Hitachi, Ibaragi, Japan) mounted on the microscope projected the image onto a color monitor (PVM-2030, Sony, Tokyo, Japan) and the images were recorded using a videocassette record (NV8950, Panasonic, Tokyo, Japan). […]
as §4, with “The velocimeter was calibrated against a rotating glass disk coated with red blood cells.” left out
The number of adherent leukocytes was determined off-line during playback of videotape images. […] Adherent cells were expressed as the number per 100 μm length of venule. The number of emigrated leukocytes was also determined off-line during playback of videotape images. […] Leukocyte emigration was expressed as the number per field of view surrounding the venule. […]

mesenteric venules = assay: Albumin leakage across mesenteric venules after ischemia reperfusion; format: in vivo, rat; settings: 100 μM, FIG. 4C; for effect on ischemia reperfusion induced albumin leakage: in words
Procedure: as §1, §2, §3
as §4, with “The velocimeter was calibrated against a rotating glass disk coated with red blood cells.” left out
After all parameters measured on-line were in a steady state, images from the mesenteric preparation were recorded on videotape for 10 min. […]

rat mesenteric venules = assay: Venular diameter, RBC velocity and wall shear rate after ischemia reperfusion; format: in vivo; settings: 100 μM in superfusate; for RBC velocity / Venular diameter / Wall Shear Rate: 30 min after reperfusion
Procedure: as §1, §2, §3, §4
After all parameters measured on-line were in a steady state, images from the mesenteric preparation were recorded on videotape for 10 min. […] The mesentery was made ischemic for zero (sham ischemia) or 20 min. After the ischemic period, the ligation was gently removed. In some experiments, either sodium nitroprusside (SNP, 100 μM, Sigma Chemical), spermine-NO (SpNO, 100 μM), SIN-1 (100 μM), spermine (SP, 100 μM, Sigma Chemical), or NG-nitro-L-arginine methyl ester (L-NAME, 100 μM, Sigma Chemical) was added to the superfusate and the same protocol was employed. Spermine-NO and SIN-1, which are NO donors, were obtained from the National Institutes of Health, Bethesda, Md. […]

microvasculature = assay: Capillary pressure and vascular resistance in cat small intestine transplant; format: in vivo, cats; settings: FIG. 13
small intestine = assay: Water absorption in cat small intestine transplant; format: in vivo, cats; settings: at 90 and 120 min; 0.5 mmol; FIG. 10
intestinal mucosa = assay: Intestinal blood to lumen 51Cr-EDTA clearance (mucosal permeability) in cat small intestine transplant; format: in vivo, cats
[1] = test system: platelet-leukocyte aggregates; assay: Platelet-leukocyte aggregates after ischemia reperfusion; format: in vivo, rat; settings: 20 min ischemia, 30 min reperfusion; 100 μM; FIG. 6
Procedure: as §1, with “Instruments). […]” for “Instruments).”
as §5
Single unbranched venules with diameters ranging between 25 and 35 μm and length greater than 150 μm were selected for study. Venular diameter (DV) was measured either on- or off-line using a video caliper (Microcirculation Research Institute, Texas A&M University, College Station, Tex.). […] Wall shear rate (γ) was calculated based on the Newtonian definition γ=8(Vmean /D). […]

[2] = test system: Chinese hamster V79 lung fibroblasts; settings: Mitchell et al.; cited from earlier work

| Molecule | change in leukocyte adherence (leukocytes; 10 and 30 min reperfusion) | effect on emigrated leukocytes (leukocytes; FIG. 4B) | degranulation of microvascular mast cells (mast cells) | effect on ischemia reperfusion induced albumin leakage (mesenteric venules) | RBC velocity (rat mesenteric venules) [mm/sec] | Venular diameter (rat mesenteric venules) [μm] | Wall Shear Rate (rat mesenteric venules) [L/s] | HX/XO induced cytotoxicity with added enzyme [2] | other results |
| --- | --- | --- | --- | --- | --- | --- | --- | --- | --- |
| COC(=O)[C@@H](N)CCCNC(=N)N[N+](=O)[O-] [L-NAME, NG-nitro-L-arginine methyl ester] | no significant changes | no effect | had no effect | no effect | 1.84 ± 0.09 | 29.2 ± 1.5 | 316 ± 10 | – | – |
| [NH-]c1c[n+](N2CCOCC2)no1 [SIN-1] | – | – | significantly inhibited | – | 2.64 ± 0.23 | 29.0 ± 1.1 | 457 ± 38 | – | reduction of number of emigrated leukocytes (leukocytes; 10 and 30 min reperfusion, FIG. 4B): 68-75%; capillary pressure (microvasculature): No significant changes; water absorption (small intestine): significantly increased; mucosal permeability (51Cr-EDTA clearance) (intestinal mucosa; 6-hr hypothermic ischemia, 120 min reperfusion, FIG. 9): decreased; 51Cr-EDTA clearance (intestinal mucosa; at 60 and 90 min, 0.5 mmol luminal perfusate): statistically significant decrease; platelet-leukocyte aggregate formation [1]: reduced; attenuation of albumin leakage (mesenteric venules; 10 min and 30 min after reperfusion): 60-71%; reversal of decrease in RBC velocity after reperfusion (rat mesenteric venules; in words): reversed the decreases; reversal of decrease in wall shear rate after reperfusion (rat mesenteric venules; in words): reversed the decreases |
| NCCCNCCCCNCCCN [SP, spermine] | no significant changes | no effect | had no effect | no effect | 2.32 ± 0.19 | 29.8 ± 1.4 | 391 ± 28 | – | – |
| superoxide dismutase | – | – | – | – | – | – | – | not treated | – |
| B1 | – | – | – | – | – | – | – | treated the cytotoxicity | – |
